Reference: BigSolDB 2.1

`Nc1nnn[nH]1` gave a solubility (mole fraction) (in 1,4-dioxane, 288.15 K) of 0.0178, a solubility (mole fraction) (in 1,4-dioxane, 293.15 K) of 0.0217 and a solubility (mole fraction) (in 1,4-dioxane, 298.15 K) of 0.0267. For the same molecule, the solubility (mole fraction) (in 1,4-dioxane, 303.15 K) was 0.0328, the solubility (mole fraction) (in 1,4-dioxane, 308.15 K) was 0.0393 and the solubility (mole fraction) (in 1,4-dioxane, 313.15 K) was 0.0463. It also gave a solubility (mole fraction) (in 1,4-dioxane, 318.15 K) of 0.0551, a solubility (mole fraction) (in 1,4-dioxane, 323.15 K) of 0.0652 and a solubility (mole fraction) (in DMF, 283.15 K) of 0.0284. The solubility (mole fraction) (in DMF, 288.15 K) was 0.0326, the solubility (mole fraction) (in DMF, 293.15 K) was 0.038 and the solubility (mole fraction) (in DMF, 298.15 K) was 0.0437. It also gave a solubility (mole fraction) (in DMF, 303.15 K) of 0.0493, a solubility (mole fraction) (in DMF, 308.15 K) of 0.0559 and a solubility (mole fraction) (in DMF, 313.15 K) of 0.0628. The solubility (mole fraction) (in DMF, 318.15 K) was 0.0707, the solubility (mole fraction) (in DMF, 323.15 K) was 0.0795 and the solubility (mole fraction) (in NMP, 283.15 K) was 0.0223. For the same molecule, the solubility (mole fraction) (in NMP, 288.15 K) was 0.0265, the solubility (mole fraction) (in NMP, 293.15 K) was 0.0312 and the solubility (mole fraction) (in NMP, 298.15 K) was 0.0366. For the same molecule, the solubility (mole fraction) (in NMP, 303.15 K) was 0.0432, the solubility (mole fraction) (in NMP, 308.15 K) was 0.0502 and the solubility (mole fraction) (in NMP, 313.15 K) was 0.0577. The solubility (mole fraction) (in NMP, 318.15 K) was 0.0657, the solubility (mole fraction) (in NMP, 323.15 K) was 0.0741 and the solubility (mole fraction) (in acetone, 283.15 K) was 0.000749. For the same molecule, the solubility (mole fraction) (in acetone, 288.15 K) was 0.000832, the solubility (mole fraction) (in acetone, 293.15 K) was 0.000916 and the solubility (mole fraction) (in acetone, 298.15 K) was 0.00102. It also gave a solubility (mole fraction) (in acetone, 303.15 K) of 0.00112, a solubility (mole fraction) (in acetone, 308.15 K) of 0.00123 and a solubility (mole fraction) (in acetone, 313.15 K) of 0.00135. It also gave a solubility (mole fraction) (in acetone, 318.15 K) of 0.00149, a solubility (mole fraction) (in acetone, 323.15 K) of 0.00162 and a solubility (mole fraction) (in acetonitrile, 283.15 K) of 0.000193. For the same molecule, the solubility (mole fraction) (in acetonitrile, 288.15 K) was 0.000213, the solubility (mole fraction) (in acetonitrile, 293.15 K) was 0.000235 and the solubility (mole fraction) (in acetonitrile, 298.15 K) was 0.000256. It also gave a solubility (mole fraction) (in acetonitrile, 303.15 K) of 0.00028, a solubility (mole fraction) (in acetonitrile, 308.15 K) of 0.000304 and a solubility (mole fraction) (in acetonitrile, 313.15 K) of 0.000329. The solubility (mole fraction) (in acetonitrile, 318.15 K) was 0.000357, the solubility (mole fraction) (in acetonitrile, 323.15 K) was 0.000385 and the solubility (mole fraction) (in ethanol, 283.15 K) was 0.0008. For the same molecule, the solubility (mole fraction) (in ethanol, 288.15 K) was 0.000896, the solubility (mole fraction) (in ethanol, 293.15 K) was 0.00099 and the solubility (mole fraction) (in ethanol, 298.15 K) was 0.00109. The solubility (mole fraction) (in ethanol, 303.15 K) was 0.00121, the solubility (mole fraction) (in ethanol, 308.15 K) was 0.00133 and the solubility (mole fraction) (in ethanol, 313.15 K) was 0.00145. For the same molecule, the solubility (mole fraction) (in ethanol, 318.15 K) was 0.0016, the solubility (mole fraction) (in ethanol, 323.15 K) was 0.00175 and the solubility (mole fraction) (in ethyl acetate, 283.15 K) was 0.000499. For the same molecule, the solubility (mole fraction) (in ethyl acetate, 288.15 K) was 0.000572, the solubility (mole fraction) (in ethyl acetate, 293.15 K) was 0.000649 and the solubility (mole fraction) (in ethyl acetate, 298.15 K) was 0.000734. It also gave a solubility (mole fraction) (in ethyl acetate, 303.15 K) of 0.000834, a solubility (mole fraction) (in ethyl acetate, 308.15 K) of 0.000943 and a solubility (mole fraction) (in ethyl acetate, 313.15 K) of 0.00107. It also gave a solubility (mole fraction) (in ethyl acetate, 318.15 K) of 0.00122, a solubility (mole fraction) (in ethyl acetate, 323.15 K) of 0.00139 and a solubility (mole fraction) (in isopropanol, 283.15 K) of 0.000762. For the same molecule, the solubility (mole fraction) (in isopropanol, 288.15 K) was 0.000853, the solubility (mole fraction) (in isopropanol, 293.15 K) was 0.000946 and the solubility (mole fraction) (in isopropanol, 298.15 K) was 0.00105. For the same molecule, the solubility (mole fraction) (in isopropanol, 303.15 K) was 0.00116, the solubility (mole fraction) (in isopropanol, 308.15 K) was 0.00128 and the solubility (mole fraction) (in isopropanol, 313.15 K) was 0.00141. It also gave a solubility (mole fraction) (in isopropanol, 318.15 K) of 0.00154, a solubility (mole fraction) (in isopropanol, 323.15 K) of 0.00169 and a solubility (mole fraction) (in methanol, 283.15 K) of 0.000615. It also gave a solubility (mole fraction) (in methanol, 288.15 K) of 0.000681, a solubility (mole fraction) (in methanol, 293.15 K) of 0.000764 and a solubility (mole fraction) (in methanol, 298.15 K) of 0.000858. It also gave a solubility (mole fraction) (in methanol, 303.15 K) of 0.000954, a solubility (mole fraction) (in methanol, 308.15 K) of 0.00106 and a solubility (mole fraction) (in methanol, 313.15 K) of 0.00118. The solubility (mole fraction) (in methanol, 318.15 K) was 0.00131, the solubility (mole fraction) (in methanol, 323.15 K) was 0.00147 and the solubility (mole fraction) (in n-butanol, 283.15 K) was 0.000455. For the same molecule, the solubility (mole fraction) (in n-butanol, 288.15 K) was 0.00051, the solubility (mole fraction) (in n-butanol, 293.15 K) was 0.000577 and the solubility (mole fraction) (in n-butanol, 298.15 K) was 0.00066. The solubility (mole fraction) (in n-butanol, 303.15 K) was 0.000755, the solubility (mole fraction) (in n-butanol, 308.15 K) was 0.000869 and the solubility (mole fraction) (in n-butanol, 313.15 K) was 0.001. The solubility (mole fraction) (in n-butanol, 318.15 K) was 0.00115, the solubility (mole fraction) (in n-butanol, 323.15 K) was 0.00131 and the solubility (mole fraction) (in n-propanol, 283.15 K) was 0.000694. The solubility (mole fraction) (in n-propanol, 288.15 K) was 0.000773, the solubility (mole fraction) (in n-propanol, 293.15 K) was 0.000868 and the solubility (mole fraction) (in n-propanol, 298.15 K) was 0.000962. The solubility (mole fraction) (in n-propanol, 303.15 K) was 0.00106, the solubility (mole fraction) (in n-propanol, 308.15 K) was 0.00117 and the solubility (mole fraction) (in n-propanol, 313.15 K) was 0.00129. It also gave a solubility (mole fraction) (in n-propanol, 318.15 K) of 0.00142, a solubility (mole fraction) (in n-propanol, 323.15 K) of 0.00157 and a solubility (mole fraction) (in toluene, 283.15 K) of 0.00135. The solubility (mole fraction) (in toluene, 288.15 K) was 0.00156, the solubility (mole fraction) (in toluene, 293.15 K) was 0.00177 and the solubility (mole fraction) (in toluene, 298.15 K) was 0.00201. For the same molecule, the solubility (mole fraction) (in toluene, 303.15 K) was 0.00229, the solubility (mole fraction) (in toluene, 308.15 K) was 0.0026 and the solubility (mole fraction) (in toluene, 313.15 K) was 0.00295. It also gave a solubility (mole fraction) (in toluene, 318.15 K) of 0.00335 and a solubility (mole fraction) (in toluene, 323.15 K) of 0.00381.
